pEC50: −log10 of the molar value. *1 amine or outer side, *2 acyl side, *3 side chain or, on linkers, in order; H or OH if unused. Where a SMILES comes first, the peptide text is derived from it. Bridges are numbered along the chain shown (N, C = ends). The star is where a group is joined. C20 diacid = O=C(O)CCCCCCCCCCCCCCCCCCC(=O)*; C18 diacid = O=C(O)CCCCCCCCCCCCCCCCC(=O)*; PEG8 = NCCOCCOCCOCCOCCOCCOCCOCCOCCC(=O)O; γGlu = O=C(O)[C@H](CCC(=O)[*:2])N[*:1]
Target: T1, Amylin 3(a) receptor (human calcitonin receptor (CTa) and RAMP-3) (Homo sapiens, UniProt O60896+P30988)
T1 construct: expressed in transfected cells; host or cells: BHK570 cells, stably transfected with a CRE-luciferase reporter
Assay: Luciferase assay (III), BHK Amylin 3(a)//CRE-luc cells
Type: cell-based
Details: BHK cells with Amylin 3(a) receptor and CRE luciferase reporter, 4 hours incubation; read-out: Potency Luciferase
Outline: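 Read-out is CRE-driven luciferase luminescence, taken 30 min after LucLite addition at room temperature. Compounds were incubated 4 h at 37° C in assay medium (10% FBS, 10 mM Hepes, pH 7,4). The cell line is BHK570 co-transfected with human calcitonin receptor CTa and RAMP-3, seeded overnight before use.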

T1 sequence (O60896 24-148): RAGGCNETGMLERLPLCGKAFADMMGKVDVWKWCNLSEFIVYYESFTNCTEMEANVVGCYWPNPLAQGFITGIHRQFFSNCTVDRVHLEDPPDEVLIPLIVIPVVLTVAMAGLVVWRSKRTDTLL
T1 sequence (P30988 25-474): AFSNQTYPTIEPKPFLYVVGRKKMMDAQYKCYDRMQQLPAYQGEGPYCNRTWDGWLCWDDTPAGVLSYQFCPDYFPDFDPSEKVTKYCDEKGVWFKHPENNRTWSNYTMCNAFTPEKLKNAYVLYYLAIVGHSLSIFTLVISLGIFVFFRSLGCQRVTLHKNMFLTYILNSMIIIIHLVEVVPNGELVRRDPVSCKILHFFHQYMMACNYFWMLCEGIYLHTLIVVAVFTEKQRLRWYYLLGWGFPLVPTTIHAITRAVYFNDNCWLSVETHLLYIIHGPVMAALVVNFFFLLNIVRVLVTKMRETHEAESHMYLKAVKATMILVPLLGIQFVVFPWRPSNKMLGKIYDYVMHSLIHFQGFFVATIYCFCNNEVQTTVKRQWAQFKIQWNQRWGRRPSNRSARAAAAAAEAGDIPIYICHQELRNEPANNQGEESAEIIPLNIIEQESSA

SMILES | pEC50
CC[C@H](C)[C@H](NC(=O)[C@@H]1CCCN1C(=O)CNC(=O)[C@H](Cc1ccccc1)NC(=O)[C@H](CC(N)=O)NC(=O)[C@H](CC(N)=O)NC(=O)[C@H](CO)NC(=O)[C@H](CO)NC(=O)[C@H](Cc1c[nH]cn1)NC(=O)[C@H](CO)NC(=O)[C@H](CC(C)C)NC(=O)[C@H](Cc1ccccc1)NC(=O)[C@H](CC(N)=O)NC(=O)[C@H](C)NC(=O)[C@H](CC(C)C)NC(=O)[C@H](CCCNC(=N)N)NC(=O)[C@H](CCC(N)=O)NC(=O)[C@@H](NC(=O)[C@H](C)NC(=O)[C@@H]1CSSC[C@H](NC(=O)CC[C@H](NC(=O)CCCCCCCCCCCCCCCCCCC(=O)O)C(=O)O)C(=O)N[C@@H](CC(N)=O)C(=O)N[C@@H]([C@@H](C)O)C(=O)N[C@@H](C)C(=O)N[C@@H]([C@@H](C)O)C(=O)N1)[C@@H](C)O)C(=O)N[C@@H](CC(C)C)C(=O)N1CCC[C@H]1C(=O)N1CCC[C@H]1C(=O)N[C@H](C(=O)N[C@@H](CC(N)=O)C(=O)N[C@H](C(=O)NCC(=O)N[C@@H](CO)C(=O)N[C@@H](CC(N)=O)C(=O)N[C@H](C(=O)N[C@@H](Cc1ccc(O)cc1)C(N)=O)[C@@H](C)O)C(C)C)[C@@H](C)O [Example 11, N-alpha-[(S)-4-Carboxy-4-(19-carboxynonadecanoylamino)butyryl]-[Ser17]-pramlintide (2-37)] ({C20 diacid-γGlu}-CNTATCATQRLANFLSHSSNNFGPILPPTNVGSNTY-NH2; disulfide 1-6) | 10.00
CC[C@H](C)[C@H](NC(=O)[C@@H]1CCCN1C(=O)CNC(=O)[C@H](Cc1ccccc1)NC(=O)[C@H](CC(N)=O)NC(=O)[C@H](CC(N)=O)NC(=O)[C@H](CO)NC(=O)[C@H](CO)NC(=O)[C@H](Cc1c[nH]cn1)NC(=O)[C@H](CCCNC(=N)N)NC(=O)[C@H](CC(C)C)NC(=O)[C@H](Cc1ccccc1)NC(=O)[C@H](CC(N)=O)NC(=O)[C@H](C)NC(=O)[C@H](CC(C)C)NC(=O)[C@H](CCCNC(=N)N)NC(=O)[C@H](CCC(N)=O)NC(=O)[C@@H](NC(=O)[C@H](C)NC(=O)[C@@H]1CSSC[C@H](NC(=O)[C@H](CCCNC(=N)N)NC(=O)[C@H](Cc2c[nH]cn2)NC(=O)[C@H](Cc2c[nH]cn2)NC(=O)[C@H](CCC(=O)O)NC(=O)CC[C@H](NC(=O)CCCCCCCCCCCCCCCCCCC(=O)O)C(=O)O)C(=O)N[C@@H](CC(N)=O)C(=O)N[C@@H]([C@@H](C)O)C(=O)N[C@@H](C)C(=O)N[C@@H]([C@@H](C)O)C(=O)N1)[C@@H](C)O)C(=O)N[C@@H](CC(C)C)C(=O)N1CCC[C@H]1C(=O)N1CCC[C@H]1C(=O)N[C@H](C(=O)N[C@@H](CC(N)=O)C(=O)N[C@H](C(=O)NCC(=O)N[C@@H](CO)C(=O)N[C@@H](CC(N)=O)C(=O)N[C@H](C(=O)N[C@@H](Cc1ccc(O)cc1)C(N)=O)[C@@H](C)O)C(C)C)[C@@H](C)O [Example 58, N-alpha-[(S)-4-Carboxy-4-(19-carboxynonadecanoylamino)butyryl]-Glu-His-His-[Arg1,Arg17]-pramlintide] ({C20 diacid-γGlu}-EHHRCNTATCATQRLANFLRHSSNNFGPILPPTNVGSNTY-NH2; disulfide 5-10) | 9.70
CC[C@H](C)[C@H](NC(=O)[C@@H]1CCCN1C(=O)CNC(=O)[C@H](Cc1ccccc1)NC(=O)[C@H](CC(N)=O)NC(=O)[C@H](CC(N)=O)NC(=O)[C@H](CO)NC(=O)[C@H](CO)NC(=O)[C@H](Cc1c[nH]cn1)NC(=O)[C@H](Cc1c[nH]cn1)NC(=O)[C@H](CC(C)C)NC(=O)[C@H](Cc1ccccc1)NC(=O)[C@H](CC(N)=O)NC(=O)[C@H](C)NC(=O)[C@H](CC(C)C)NC(=O)[C@H](CCCNC(=N)N)NC(=O)[C@H](CCC(N)=O)NC(=O)[C@@H](NC(=O)[C@H](C)NC(=O)[C@@H]1CSSC[C@H](NC(=O)[C@H](CCC(=O)O)NC(=O)[C@H](CCC(=O)O)NC(=O)CC[C@H](NC(=O)CCCCCCCCCCCCCCCCCCC(=O)O)C(=O)O)C(=O)N[C@@H](CC(N)=O)C(=O)N[C@@H]([C@@H](C)O)C(=O)N[C@@H](C)C(=O)N[C@@H]([C@@H](C)O)C(=O)N1)[C@@H](C)O)C(=O)N[C@@H](CC(C)C)C(=O)N1CCC[C@H]1C(=O)N1CCC[C@H]1C(=O)N[C@H](C(=O)N[C@@H](CC(N)=O)C(=O)N[C@H](C(=O)NCC(=O)N[C@@H](CO)C(=O)N[C@@H](CC(N)=O)C(=O)N[C@H](C(=O)N[C@@H](Cc1ccc(O)cc1)C(N)=O)[C@@H](C)O)C(C)C)[C@@H](C)O [Example 50, N-alpha-[(S)-4-Carboxy-4-(19-carboxynonadecanoylamino)butyryl]-Glu-[Glu1,His17]-pramlintide] ({C20 diacid-γGlu}-EECNTATCATQRLANFLHHSSNNFGPILPPTNVGSNTY-NH2; disulfide 3-8) | 9.52
CC[C@H](C)[C@H](NC(=O)[C@@H]1CCCN1C(=O)CNC(=O)[C@H](Cc1ccccc1)NC(=O)[C@H](CC(N)=O)NC(=O)[C@H](CC(N)=O)NC(=O)[C@H](CO)NC(=O)[C@H](CO)NC(=O)[C@H](Cc1c[nH]cn1)NC(=O)[C@H](Cc1c[nH]cn1)NC(=O)[C@H](CC(C)C)NC(=O)[C@H](Cc1ccccc1)NC(=O)[C@H](CC(N)=O)NC(=O)[C@H](C)NC(=O)[C@H](CC(C)C)NC(=O)[C@H](CCCNC(=N)N)NC(=O)[C@H](CCC(N)=O)NC(=O)[C@@H](NC(=O)[C@H](C)NC(=O)[C@@H]1CSSC[C@H](NC(=O)[C@H](CCCNC(=N)N)NC(=O)CCOCCOCCOCCOCCOCCOCCOCCOCCNC(=O)CC[C@H](NC(=O)CCCCCCCCCCCCCCCCC(=O)O)C(=O)O)C(=O)N[C@@H](CC(N)=O)C(=O)N[C@@H]([C@@H](C)O)C(=O)N[C@@H](C)C(=O)N[C@@H]([C@@H](C)O)C(=O)N1)[C@@H](C)O)C(=O)N[C@@H](CC(C)C)C(=O)N1CCC[C@H]1C(=O)N1CCC[C@H]1C(=O)N[C@H](C(=O)N[C@@H](CC(N)=O)C(=O)N[C@H](C(=O)NCC(=O)N[C@@H](CO)C(=O)N[C@@H](CC(N)=O)C(=O)N[C@H](C(=O)N[C@@H](Cc1ccc(O)cc1)C(N)=O)[C@@H](C)O)C(C)C)[C@@H](C)O [Example 52, N-alpha-[3-(2-{2-[2-(2-{2-[2-(2-{2-[(S)-4-Carboxy-4-(17-carboxyheptadecanoylamino)butyrylamino]ethoxy}ethoxy)ethoxy]ethoxy}ethoxy)ethoxy]ethoxy}ethoxy)propionylamino][Arg1,His17]-pramlintide] ({C18 diacid-γGlu-PEG8}-RCNTATCATQRLANFLHHSSNNFGPILPPTNVGSNTY-NH2; disulfide 2-7) | 10.10
CC[C@H](C)[C@H](NC(=O)[C@@H]1CCCN1C(=O)CNC(=O)[C@H](Cc1ccccc1)NC(=O)[C@H](CC(N)=O)NC(=O)[C@H](CC(N)=O)NC(=O)[C@H](CO)NC(=O)[C@H](CO)NC(=O)[C@H](Cc1c[nH]cn1)NC(=O)[C@H](Cc1c[nH]cn1)NC(=O)[C@H](CC(C)C)NC(=O)[C@H](Cc1ccccc1)NC(=O)[C@H](CC(N)=O)NC(=O)[C@H](C)NC(=O)[C@H](CC(C)C)NC(=O)[C@H](CCCNC(=N)N)NC(=O)[C@H](CCC(N)=O)NC(=O)[C@@H](NC(=O)[C@H](C)NC(=O)[C@@H]1CSSC[C@H](NC(=O)[C@H](CCCCN)NC(=O)[C@H](Cc2c[nH]cn2)NC(=O)CC[C@H](NC(=O)CCCCCCCCCCCCCCCCCCC(=O)O)C(=O)O)C(=O)N[C@@H](CC(N)=O)C(=O)N[C@@H]([C@@H](C)O)C(=O)N[C@@H](C)C(=O)N[C@@H]([C@@H](C)O)C(=O)N1)[C@@H](C)O)C(=O)N[C@@H](CC(C)C)C(=O)N1CCC[C@H]1C(=O)N1CCC[C@H]1C(=O)N[C@H](C(=O)N[C@@H](CC(N)=O)C(=O)N[C@H](C(=O)NCC(=O)N[C@@H](CO)C(=O)N[C@@H](CC(N)=O)C(=O)N[C@H](C(=O)N[C@@H](Cc1ccc(O)cc1)C(N)=O)[C@@H](C)O)C(C)C)[C@@H](C)O [Example 28, N-alpha-[(S)-4-Carboxy-4-(19-carboxynonadecanoylamino)butyryl]-His-[His17]-pramlintide] ({C20 diacid-γGlu}-HKCNTATCATQRLANFLHHSSNNFGPILPPTNVGSNTY-NH2; disulfide 3-8) | 10.00
CC[C@H](C)[C@H](NC(=O)[C@@H]1CCCN1C(=O)CNC(=O)[C@H](Cc1ccccc1)NC(=O)[C@H](CC(N)=O)NC(=O)[C@H](CC(N)=O)NC(=O)[C@H](CO)NC(=O)[C@H](CO)NC(=O)[C@H](Cc1c[nH]cn1)NC(=O)[C@H](Cc1c[nH]cn1)NC(=O)[C@H](CC(C)C)NC(=O)[C@H](Cc1ccccc1)NC(=O)[C@H](CCC(=O)O)NC(=O)[C@H](C)NC(=O)[C@H](CC(C)C)NC(=O)[C@H](CCCNC(=N)N)NC(=O)[C@H](CCC(N)=O)NC(=O)[C@@H](NC(=O)[C@H](C)NC(=O)[C@@H]1CSSC[C@H](NC(=O)[C@H](CCC(=O)O)NC(=O)[C@H](CCCNC(=N)N)NC(=O)[C@H](CCC(=O)O)NC(=O)[C@H](CCC(=O)O)NC(=O)CCCCCCCCCCCCCCCCCCC(=O)O)C(=O)N[C@@H](CC(N)=O)C(=O)N[C@@H]([C@@H](C)O)C(=O)N[C@@H](C)C(=O)N[C@@H]([C@@H](C)O)C(=O)N1)[C@@H](C)O)C(=O)N[C@@H](CC(C)C)C(=O)N1CCC[C@H]1C(=O)N1CCC[C@H]1C(=O)N[C@H](C(=O)N[C@@H](CCC(=O)O)C(=O)N[C@H](C(=O)NCC(=O)N[C@@H](CO)C(=O)N[C@@H](CC(N)=O)C(=O)N[C@H](C(=O)N[C@@H](Cc1ccc(O)cc1)C(N)=O)[C@@H](C)O)C(C)C)[C@@H](C)O [Example 1, N-alpha-(19-carboxynonadecanoyl)-Glu-Glu-Arg-[Glu1,Glu14,His17,Glu31]-pramlintide] ({C20 diacid}-EERECNTATCATQRLAEFLHHSSNNFGPILPPTEVGSNTY-NH2; disulfide 5-10) | 9.05

— patent US8895504B2, “Amylin derivatives” (priority 2008, dated 2014)
